Among the test systems are ACHN renal; KM12 colon; NCI-H522 lung; HOP-62 NSCLC; SF-539 CNS; SN12C renal; UO-31 renal; NCI-H226 lung.
Holding throughout (assay): DTP human tumour cell line panel, 48 h

Values joined by “and” are separate entries in the source; they are usually repeats but may differ in a detail not shown here. Equal values may be shown once.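 How tested: cells in 96-well plates exposed to compound for 48 hours at five concentrations. GI50 = concentration required for 50% inhibition of growth. Definition used: TGI = concentration required for complete inhibition of growth.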 Some results are limits rather than exact numbers.

The term TGI denotes the concentration giving total growth inhibition. As a reminder, the GI50 is the concentration that inhibits growth by half. `COC(=O)[C@@H](C)C[C@H](Cc1ccccc1)NC(=O)c1csc([C@@H](C[C@H](C(C)C)N(C)C(=O)[C@@H](NC(=O)[C@H]2CCCCN2C)c2ccc(F)cc2)OC(C)=O)n1`: the TGI in the experiment on ACHN renal is 25 µM and > 100 µM; in the experiment on KM12 colon it was 25 µM and > 100 µM; with HOP-62 NSCLC, 25 µM and 40.4 µM; in the experiment with SF-539 CNS, 0.0662 µM and 0.615 µM; in the experiment with SN12C renal it was 22.2 µM and 19.5 µM. Besides, the GI50 is 0.00259 µM and 0.0234 µM in the experiment on NCI-H522 lung; 0.0215 µM and 0.0604 µM in the experiment on SF-539 CNS.

Regarding `O=C1CC=C2C3CC4N(CCC45c4ccccc4N1C25)C/C3=C\CO` (stereo unspecified), the concentration for total growth inhibition (TGI) with UO-31 renal, with ACHN renal, in the experiment with KM12 colon, in the experiment on NCI-H522 lung, in the experiment on SF-539 CNS and in the experiment on SN12C renal was greater than 100 µM each time. This molecule gave a TGI with NCI-H226 lung greater than 100 µM.

Consider `COC(=O)C(/C(=N/N)C(=O)Nc1cc(Cl)ccc1Cl)c1nc2ccc([N+](=O)[O-])cc2[nH]c1=O` (stereo unspecified), for which the TGI in the experiment on UO-31 renal, in the experiment with ACHN renal, with KM12 colon, in the experiment with NCI-H522 lung, with HOP-62 NSCLC and with SF-539 CNS was greater than 100 µM throughout. In addition, the TGI in the experiment with SN12C renal and in the experiment on NCI-H226 lung was greater than 100 µM throughout.

For the molecule `Cc1cc2[nH]c(=O)c3c4ncccc4cn3c2cc1C`, the GI50 was 1.68 µM in the experiment on UO-31 renal; 2.44 µM in the experiment on ACHN renal; 3.17 µM in the experiment with KM12 colon; 3.81 µM in the experiment on HOP-62 NSCLC; 1.93 µM in the experiment on SF-539 CNS; 3.45 µM in the experiment on SN12C renal. Further, the GI50 in the experiment with NCI-H226 lung was 6.04 µM. The total growth inhibition concentration (TGI) was 4.58 µM in the experiment on UO-31 renal; greater than 100 µM with ACHN renal; greater than 100 µM with KM12 colon; 39.4 µM in the experiment on HOP-62 NSCLC; 3.98 µM in the experiment on SF-539 CNS; greater than 100 µM in the experiment on SN12C renal. Besides, the total growth inhibition concentration (TGI) in the experiment with NCI-H226 lung was greater than 100 µM.

With `O=C(N/C(=C\c1cccc([N+](=O)[O-])c1)c1nc2c3c(ccc2[nH]1)C(=O)c1ccccc1C3=O)c1ccccc1`, the TGI in the experiment with UO-31 renal, in the experiment with ACHN renal, with KM12 colon, with NCI-H522 lung, in the experiment with HOP-62 NSCLC and in the experiment with SF-539 CNS was greater than 100 µM throughout. The total growth inhibition concentration (TGI) in the experiment on SN12C renal and with NCI-H226 lung was greater than 100 µM in each case.

`OCC#Cc1ccccc1C#Cc1ccc(C#Cc2ccccc2C#CCO)cc1`: the GI50 is 36 µM in the experiment with UO-31 renal; 36.2 µM in the experiment with ACHN renal; 95.8 µM in the experiment on KM12 colon; 50.1 µM in the experiment with NCI-H522 lung; 28.1 µM in the experiment on HOP-62 NSCLC; 34.9 µM with SF-539 CNS. In addition, the GI50 in the experiment with SN12C renal was 31.6 µM; in the experiment with NCI-H226 lung, 56.8 µM. Further, the TGI with UO-31 renal is greater than 100 µM; in the experiment on ACHN renal, greater than 100 µM; in the experiment on KM12 colon it was greater than 100 µM; in the experiment with NCI-H522 lung, greater than 100 µM; in the experiment with HOP-62 NSCLC, 68.5 µM; in the experiment on SF-539 CNS, 91.5 µM. Besides, the TGI in the experiment on SN12C renal and in the experiment on NCI-H226 lung was greater than 100 µM throughout.

Take `COC(=O)[C@@H](C)C[C@H](Cc1ccc(F)cc1)NC(=O)c1csc([C@@H](C[C@H](C(C)C)N(C)C(=O)[C@@H](NC(=O)[C@H]2CCCCN2C)C2CC2)OC(C)=O)n1`: the GI50 in the experiment with UO-31 renal was 1.91 µM; in the experiment on ACHN renal it was 1.98 µM; in the experiment with KM12 colon it was 0.28 µM; in the experiment with NCI-H522 lung it was 0.0577 µM; with HOP-62 NSCLC, 0.559 µM; in the experiment with SF-539 CNS, 0.408 µM. Also, the concentration for 50% growth inhibition (GI50) with SN12C renal is 0.357 µM; in the experiment with NCI-H226 lung, 1.26 µM. In addition, the TGI was greater than 25 µM with UO-31 renal; greater than 25 µM in the experiment with ACHN renal; greater than 25 µM in the experiment on KM12 colon; 0.213 µM in the experiment with NCI-H522 lung; greater than 25 µM with HOP-62 NSCLC; 1.49 µM in the experiment with SF-539 CNS. Moreover, the concentration for total growth inhibition (TGI) in the experiment with SN12C renal was greater than 25 µM; in the experiment on NCI-H226 lung, greater than 13.9 µM.

Take `COc1cc(/C=C/C(=O)c2ccccc2O)ccc1OCCCOc1cc2c(cc1OC)C(=O)N1CCC[C@H]1C=N2`: the GI50 in the experiment with UO-31 renal is 0.0812 µM; in the experiment with ACHN renal, 0.071 µM; in the experiment on KM12 colon, 0.0369 µM; in the experiment on NCI-H522 lung, 0.0662 µM; with HOP-62 NSCLC it was 0.0392 µM; in the experiment on SF-539 CNS, 0.0359 µM. Moreover, the 50% growth inhibitory concentration (GI50) in the experiment on SN12C renal was 0.0521 µM; in the experiment with NCI-H226 lung it was 0.181 µM. For the same molecule, the TGI stood at 0.771 µM in the experiment on UO-31 renal; 0.818 µM in the experiment with ACHN renal; 0.263 µM in the experiment on KM12 colon; 0.453 µM in the experiment on NCI-H522 lung; 13.1 µM with HOP-62 NSCLC; 0.118 µM in the experiment on SF-539 CNS. Besides, the values for the total growth inhibition concentration (TGI) in the experiment on SN12C renal and with NCI-H226 lung were 1.3 µM and 0.541 µM, respectively.

With `COc1ccc(OC)c(-c2cc(-c3ccc(Cl)cc3)nn2-c2ccccc2)c1`, the GI50 with UO-31 renal was greater than 100 µM; with ACHN renal it was 46.2 µM; with KM12 colon it was 23.1 µM; in the experiment with NCI-H522 lung, 12.6 µM; with SF-539 CNS it was 36 µM; with SN12C renal it was 23.9 µM. Moreover, in the experiment with NCI-H226 lung, the GI50 was 33 µM. Moreover, the total growth inhibition concentration (TGI) in the experiment with UO-31 renal was greater than 100 µM; with ACHN renal, greater than 100 µM; in the experiment on KM12 colon it was greater than 100 µM; in the experiment on NCI-H522 lung, greater than 100 µM; in the experiment on SF-539 CNS it was 95.2 µM; in the experiment with SN12C renal, 69.6 µM. Besides, the total growth inhibition concentration (TGI) with NCI-H226 lung was greater than 100 µM.

Values taken from PubChem BioAssay (NCI).
